Experimental data published in EP4635500A1, “THERAPEUTIC AGENT FOR BACTERIAL INFECTION” (Sumitomo Pharma Co., Ltd., priority 2022, dated 2024).
Values after ≈ are worked out from the molar mass of the structure shown. Like-named read-outs stand apart in the source and are kept apart here.

Assays:
53 CRE and CPE strains = test: MICrange, MIC50, MIC80, MIC90 for 53 bacterial isolates (Example 5, Table 5); type: cell-based; conditions: 53 bacterial isolates
Enterobacterales = test: MIC, broth microdilution, CDC/FDA Antibiotic Resistance Isolate Bank (Example 7, Tables 8, 11, 12); type: cell-based; conditions: for MIC: read-out: MIC

For `CO/N=C(\C(=O)N[C@@H]1C(=O)N2C(C(=O)[O-])=C(C[n+]3ccn4ncccc43)CS[C@H]12)c1nsc(N)n1` [Cefozopran, cefozopran], the MIC50 (53 CRE and CPE strains; read-out: MIC50) was 32 mg/L (≈ 62.1 µM), the MIC80 (53 CRE and CPE strains; read-out: MIC80) was greater than 64 mg/L and the MIC90 (53 CRE and CPE strains; read-out: MIC90) was greater than 64 mg/L. The MIC50 (Enterobacterales; 154 strains of Enterobacterales, read-out: MIC50) was 64 mg/L (≈ 124 µM), the MIC80 (Enterobacterales; 154 strains of Enterobacterales, read-out: MIC80) was greater than 64 mg/L and the MIC90 (Enterobacterales; 154 strains of Enterobacterales, read-out: MIC90) was greater than 64 mg/L. It also gave an MIC (Enterobacterales; Citrobacter freundii, KUB No. 5654, AR Bank # 157) greater than 64 mg/L, an MIC (Enterobacterales; Enterobacter cloacae, Enterobacter cloacae KUB No. 5792, AR Bank #448) greater than 64 mg/L and an MIC (Enterobacterales; Enterobacter cloacae, Enterobacter cloacae KUB No. 5807, AR Bank #501) greater than 64 mg/L. For the same compound, the MIC (Enterobacterales; Enterobacter cloacae, Enterobacter cloacae KUB No. 5808, AR Bank #502) was greater than 64 mg/L, the MIC (Enterobacterales; Enterobacter cloacae, Enterobacter cloacae complex, KUB No. 5661, AR Bank # 164) was 1 mg/L (≈ 1.94 µM) and the MIC (Enterobacterales; Enterobacter cloacae, Enterobacter cloacae group, KUB No. 5629, AR Bank # 132) was 0.25 mg/L (≈ 0.485 µM). For the same compound, the MIC (Enterobacterales; Enterobacter cloacae, KUB No. 5529, AR Bank# 32) was 4 mg/L (≈ 7.76 µM), the MIC (Enterobacterales; Enterobacter cloacae, KUB No. 5535, AR Bank# 38) was greater than 64 mg/L and the MIC (Enterobacterales; Enterobacter cloacae, KUB No. 5547, AR Bank# 50) was 8 mg/L (≈ 15.5 µM). It also gave an MIC (Enterobacterales; Enterobacter cloacae, KUB No. 5550, AR Bank# 53) greater than 64 mg/L, an MIC (Enterobacterales; Enterobacter cloacae, KUB No. 5557, AR Bank# 60) of 2 mg/L (≈ 3.88 µM) and an MIC (Enterobacterales; Enterobacter cloacae, KUB No. 5562, AR Bank # 65) of 16 mg/L (≈ 31 µM). It also gave an MIC (Enterobacterales; Enterobacter cloacae, KUB No. 5569, AR Bank # 72) of 16 mg/L (≈ 31 µM), an MIC (Enterobacterales; Enterobacter cloacae, KUB No. 5570, AR Bank # 73) of 0.25 mg/L (≈ 0.485 µM) and an MIC (Enterobacterales; Enterobacter cloacae, KUB No. 5590, AR Bank # 93) of 32 mg/L (≈ 62.1 µM). It also gave an MIC (Enterobacterales; Enterobacter cloacae, KUB No. 5660, AR Bank # 163) greater than 64 mg/L, an MIC (Enterobacterales; Enterobacter cloacae, KUB No. 5761, AR Bank # 365) of 16 mg/L (≈ 31 µM) and an MIC (Enterobacterales; Enterobacter cloacae, KUB No. 5762, AR Bank # 366) of 16 mg/L (≈ 31 µM). For the same compound, the MIC (Enterobacterales; Enterobacter cloacae, KUB No. 5763, AR Bank # 367) was 4 mg/L (≈ 7.76 µM), the MIC (Enterobacterales; Enterobacter cloacae, KUB No. 5778, AR Bank # 432) was greater than 64 mg/L and the MIC (Enterobacterales; Enterobacter cloaccae, KUB No. 5651, AR Bank # 154) was greater than 64 mg/L. For the same compound, the MIC (Enterobacterales; Enterobacter clooreae, KUB No. 5633, AR Bank # 136) was greater than 64 mg/L, the MIC (Enterobacterales; Escherichia coli, Escherichia coli KUB No. 5783, AR Bank #437) was greater than 64 mg/L and the MIC (Enterobacterales; Escherichia coli, Escherichia coli KUB No. 5794, AR Bank #450) was greater than 64 mg/L. The MIC (Enterobacterales; Escherichia coli, Escherichia coli KUB No. 5795, AR Bank #451) was 64 mg/L (≈ 124 µM), the MIC (Enterobacterales; Escherichia coli, Escherichia coli KUB No. 5796, AR Bank #452) was greater than 64 mg/L and the MIC (Enterobacterales; Escherichia coli, Escherichia coli KUB No. 5803, AR Bank #861) was greater than 64 mg/L. The MIC (Enterobacterales; Escherichia coli, KUB No. 5558, AR Bank # 61) was 16 mg/L (≈ 31 µM), the MIC (Enterobacterales; Escherichia coli, KUB No. 5564, AR Bank # 67) was 0.25 mg/L (≈ 0.485 µM) and the MIC (Enterobacterales; Escherichia coli, KUB No. 5566, AR Bank # 69) was greater than 64 mg/L. For the same compound, the MIC (Enterobacterales; Escherichia coli, KUB No. 5574, AR Bank # 77) was 0.06 mg/L (≈ 0.116 µM), the MIC (Enterobacterales; Escherichia coli, KUB No. 5578, AR Bank # 81) was 0.5 mg/L (≈ 0.97 µM) and the MIC (Enterobacterales; Escherichia coli, KUB No. 5581, AR Bank # 84) was 0.25 mg/L (≈ 0.485 µM). For the same compound, the MIC (Enterobacterales; Escherichia coli, KUB No. 5582, AR Bank # 85) was 8 mg/L (≈ 15.5 µM), the MIC (Enterobacterales; Escherichia coli, KUB No. 5583, AR Bank # 86) was greater than 64 mg/L and the MIC (Enterobacterales; Escherichia coli, KUB No. 5586, AR Bank # 89) was 0.5 mg/L (≈ 0.97 µM). For the same compound, the MIC (Enterobacterales; Escherichia coli, KUB No. 5601, AR Bank # 104) was 32 mg/L (≈ 62.1 µM), the MIC (Enterobacterales; Escherichia coli, KUB No. 5611, AR Bank # 114) was 16 mg/L (≈ 31 µM) and the MIC (Enterobacterales; Escherichia coli, KUB No. 5615, AR Bank # 118) was greater than 64 mg/L. The MIC (Enterobacterales; Escherichia coli, KUB No. 5616, AR Bank # 119) was greater than 64 mg/L, the MIC (Enterobacterales; Escherichia coli, KUB No. 5625, AR Bank # 128) was greater than 64 mg/L and the MIC (Enterobacterales; Escherichia coli, KUB No. 5634, AR Bank # 137) was greater than 64 mg/L. It also gave an MIC (Enterobacterales; Escherichia coli, KUB No. 5646, AR Bank # 149) greater than 64 mg/L, an MIC (Enterobacterales; Escherichia coli, KUB No. 5647, AR Bank # 150) greater than 64 mg/L and an MIC (Enterobacterales; Escherichia coli, KUB No. 5648, AR Bank # 151) greater than 64 mg/L. The MIC (Enterobacterales; Escherichia coli, KUB No. 5659, AR Bank # 162) was greater than 64 mg/L.
